Columns and labels:
[1] = biological target: T1, Alpha-2A adrenergic receptor (Homo sapiens, UniProt P08913); assay type: functional, cell-based
T1 sequence (P08913 whole entry): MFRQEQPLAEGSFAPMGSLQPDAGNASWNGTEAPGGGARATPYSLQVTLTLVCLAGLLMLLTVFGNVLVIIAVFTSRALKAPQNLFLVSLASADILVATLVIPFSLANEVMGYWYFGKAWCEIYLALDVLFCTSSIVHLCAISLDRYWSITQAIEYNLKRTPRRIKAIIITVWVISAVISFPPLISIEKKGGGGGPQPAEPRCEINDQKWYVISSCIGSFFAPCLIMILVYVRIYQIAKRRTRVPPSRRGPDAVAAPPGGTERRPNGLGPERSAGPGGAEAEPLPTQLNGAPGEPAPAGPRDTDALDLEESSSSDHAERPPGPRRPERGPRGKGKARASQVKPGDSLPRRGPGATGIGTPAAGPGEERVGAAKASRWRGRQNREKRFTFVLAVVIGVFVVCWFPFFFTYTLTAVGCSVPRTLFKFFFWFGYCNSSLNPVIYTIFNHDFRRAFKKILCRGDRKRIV

Adenosine receptor A1 = biological target: T2, Adenosine receptor A1 (Homo sapiens, UniProt P30542)
T2 sequence (P30542 whole entry): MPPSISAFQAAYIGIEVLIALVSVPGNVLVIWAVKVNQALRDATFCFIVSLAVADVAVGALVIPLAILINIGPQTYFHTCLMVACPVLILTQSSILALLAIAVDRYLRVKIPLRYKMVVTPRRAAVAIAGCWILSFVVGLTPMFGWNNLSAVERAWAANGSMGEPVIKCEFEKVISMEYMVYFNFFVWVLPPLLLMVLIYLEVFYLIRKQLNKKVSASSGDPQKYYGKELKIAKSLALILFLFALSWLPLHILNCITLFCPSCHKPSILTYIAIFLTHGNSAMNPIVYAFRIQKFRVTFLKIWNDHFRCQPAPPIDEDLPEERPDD

[2] = biological target: 5-hydroxytryptamine receptor 2A (Homo sapiens, UniProt P28223); assay type: functional, cell-based
Chain of 5-hydroxytryptamine receptor 2A (P28223 whole entry): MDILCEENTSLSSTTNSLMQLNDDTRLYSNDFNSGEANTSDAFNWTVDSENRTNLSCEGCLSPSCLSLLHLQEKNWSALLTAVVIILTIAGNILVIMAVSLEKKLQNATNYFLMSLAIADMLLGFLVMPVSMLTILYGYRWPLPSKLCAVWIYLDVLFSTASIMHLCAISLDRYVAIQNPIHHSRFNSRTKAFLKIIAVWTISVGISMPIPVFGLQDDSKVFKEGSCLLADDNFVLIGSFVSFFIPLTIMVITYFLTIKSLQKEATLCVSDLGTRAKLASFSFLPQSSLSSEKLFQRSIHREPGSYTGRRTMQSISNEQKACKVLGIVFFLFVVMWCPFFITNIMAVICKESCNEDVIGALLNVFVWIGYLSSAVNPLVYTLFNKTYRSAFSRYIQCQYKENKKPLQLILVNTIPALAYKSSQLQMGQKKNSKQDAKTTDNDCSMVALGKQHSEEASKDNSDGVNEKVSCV

Melanocortin receptor 3 = Melanocortin receptor 3 (Homo sapiens, UniProt P41968)
Chain of Melanocortin receptor 3 (P41968 whole entry): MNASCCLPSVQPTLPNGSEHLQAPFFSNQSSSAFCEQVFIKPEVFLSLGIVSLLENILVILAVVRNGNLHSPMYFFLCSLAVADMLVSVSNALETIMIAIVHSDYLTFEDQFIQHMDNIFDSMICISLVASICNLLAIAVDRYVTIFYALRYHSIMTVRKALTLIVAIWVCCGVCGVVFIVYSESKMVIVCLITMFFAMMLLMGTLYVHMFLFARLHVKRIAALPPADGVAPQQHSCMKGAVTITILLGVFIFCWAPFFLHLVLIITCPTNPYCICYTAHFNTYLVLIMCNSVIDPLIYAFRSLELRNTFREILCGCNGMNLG

Adenosine receptor A3 = biological target: T3, Adenosine receptor A3 (Homo sapiens, UniProt P0DMS8)
T3 sequence (P0DMS8 whole entry): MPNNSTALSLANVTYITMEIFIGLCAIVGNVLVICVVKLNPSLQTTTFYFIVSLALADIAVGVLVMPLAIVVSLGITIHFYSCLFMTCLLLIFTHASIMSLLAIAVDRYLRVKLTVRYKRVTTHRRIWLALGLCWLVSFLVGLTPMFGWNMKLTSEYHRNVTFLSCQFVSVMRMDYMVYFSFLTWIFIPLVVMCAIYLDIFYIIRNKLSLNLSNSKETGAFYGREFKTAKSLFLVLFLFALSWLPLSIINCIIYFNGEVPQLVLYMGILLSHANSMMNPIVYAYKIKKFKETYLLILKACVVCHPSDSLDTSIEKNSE

[3] = biological target: T4, 5-hydroxytryptamine receptor 3A (Homo sapiens, UniProt P46098); assay type: functional
T4 sequence (P46098 whole entry): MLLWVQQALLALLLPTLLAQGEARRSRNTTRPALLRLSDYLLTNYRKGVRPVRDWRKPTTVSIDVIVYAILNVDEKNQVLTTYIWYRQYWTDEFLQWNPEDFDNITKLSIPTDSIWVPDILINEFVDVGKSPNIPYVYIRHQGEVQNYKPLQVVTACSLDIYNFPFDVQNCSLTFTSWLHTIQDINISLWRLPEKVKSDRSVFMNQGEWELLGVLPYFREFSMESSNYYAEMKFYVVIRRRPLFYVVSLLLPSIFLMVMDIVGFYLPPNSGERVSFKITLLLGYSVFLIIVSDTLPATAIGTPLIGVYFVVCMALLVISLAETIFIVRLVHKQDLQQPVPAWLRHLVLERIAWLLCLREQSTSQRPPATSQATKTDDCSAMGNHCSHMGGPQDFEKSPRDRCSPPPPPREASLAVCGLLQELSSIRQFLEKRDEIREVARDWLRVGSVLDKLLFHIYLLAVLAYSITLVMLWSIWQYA

[4] = biological target: T5, 5-hydroxytryptamine receptor 2C (Homo sapiens, UniProt P28335)
T5 sequence (P28335 whole entry): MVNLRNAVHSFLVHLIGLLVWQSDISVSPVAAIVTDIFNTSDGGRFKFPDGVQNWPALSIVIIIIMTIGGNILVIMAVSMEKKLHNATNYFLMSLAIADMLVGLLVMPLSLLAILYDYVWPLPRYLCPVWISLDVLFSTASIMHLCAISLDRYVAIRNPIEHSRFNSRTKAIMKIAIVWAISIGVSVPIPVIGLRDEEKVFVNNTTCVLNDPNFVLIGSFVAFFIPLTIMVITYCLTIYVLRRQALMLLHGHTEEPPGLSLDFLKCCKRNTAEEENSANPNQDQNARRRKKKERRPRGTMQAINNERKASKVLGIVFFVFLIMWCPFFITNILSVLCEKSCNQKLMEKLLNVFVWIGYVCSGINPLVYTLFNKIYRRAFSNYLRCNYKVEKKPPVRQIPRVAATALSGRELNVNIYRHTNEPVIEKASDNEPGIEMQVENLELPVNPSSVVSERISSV

[5] = biological target: T6, 5-hydroxytryptamine receptor 1A (Homo sapiens, UniProt P08908); assay type: functional, cell-based
T6 sequence (P08908 whole entry): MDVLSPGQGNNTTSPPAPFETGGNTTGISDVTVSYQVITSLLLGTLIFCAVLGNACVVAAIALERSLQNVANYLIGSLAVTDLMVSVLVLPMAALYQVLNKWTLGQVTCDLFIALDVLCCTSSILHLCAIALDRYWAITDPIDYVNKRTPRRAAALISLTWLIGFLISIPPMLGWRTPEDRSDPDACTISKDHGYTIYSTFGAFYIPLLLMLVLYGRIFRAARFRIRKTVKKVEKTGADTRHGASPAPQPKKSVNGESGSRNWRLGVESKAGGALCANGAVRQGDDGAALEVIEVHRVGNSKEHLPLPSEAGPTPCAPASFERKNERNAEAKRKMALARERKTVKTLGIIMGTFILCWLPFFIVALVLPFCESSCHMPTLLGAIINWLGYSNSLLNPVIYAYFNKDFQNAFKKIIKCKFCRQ

Mu-type opioid receptor = Mu-type opioid receptor (Homo sapiens, UniProt P35372)
Chain of Mu-type opioid receptor (P35372 whole entry): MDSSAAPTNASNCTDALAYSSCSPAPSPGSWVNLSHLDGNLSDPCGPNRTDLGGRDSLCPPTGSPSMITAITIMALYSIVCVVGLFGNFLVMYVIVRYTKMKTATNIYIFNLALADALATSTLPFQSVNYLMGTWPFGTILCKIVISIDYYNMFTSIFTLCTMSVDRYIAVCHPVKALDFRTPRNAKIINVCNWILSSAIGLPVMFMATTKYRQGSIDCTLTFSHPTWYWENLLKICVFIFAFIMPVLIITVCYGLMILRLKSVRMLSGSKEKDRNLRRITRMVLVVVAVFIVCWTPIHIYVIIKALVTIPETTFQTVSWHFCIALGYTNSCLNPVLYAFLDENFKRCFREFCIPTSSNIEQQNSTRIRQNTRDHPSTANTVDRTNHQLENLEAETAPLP
Note: assay procedure not described here.

Compound | AC50 [1] | AC50 (Adenosine receptor A1) | AC50 [2] | AC50 (Melanocortin receptor 3) | AC50 (Adenosine receptor A3) | AC50 [3] | AC50 [4] | AC50 [5] | AC50 (Mu-type opioid receptor)
C[C@]12CC[C@@H]3c4ccc(O)cc4C[C@@H](CCCCCCCCC[S+]([O-])CCCC(F)(F)C(F)(F)F)[C@H]3[C@@H]1CC[C@@H]2O (some centres not stated) [FULVESTRANT] | > 30 µM | > 30 µM | > 30 µM | > 30 µM | > 30 µM | > 30 µM | > 30 µM |  | 
C=CCNc1nc(NCC=C)nc(N2CCN(C(c3ccc(F)cc3)c3ccc(F)cc3)CC2)n1 [ALMITRINE] | > 30 µM | > 30 µM | > 30 µM | > 30 µM | > 30 µM | > 30 µM | > 30 µM | > 30 µM | 
CCC(C)C(CC)C(N)=O (configuration not stated) [VALNOCTAMIDE] | > 30 µM | > 30 µM | > 30 µM | > 30 µM | > 30 µM | > 30 µM | > 30 µM |  | 
CCOC(=O)C1=C[C@]2(CC)CCCN3CCc4c(n1c1ccccc41)[C@@H]32 [VINPOCETINE] | > 30 µM | 30 µM | > 30 µM | > 30 µM | > 30 µM | > 30 µM | > 30 µM |  | 
O=[N+]([O-])c1ccc(O)c2ncccc12 [NITROXOLINE] | > 30 µM |  | > 30 µM |  |  | 6.6 µM | 5.5 µM | > 30 µM | 
CC1(C)S[C@@H]2[C@H](NC(=O)[C@H](N)c3ccccc3)C(=O)N2[C@H]1C(=O)OCOC(=O)[C@@H]1N2C(=O)C[C@H]2S(=O)(=O)C1(C)C [SULTAMICILLIN] | > 30 µM | > 30 µM | > 30 µM | > 30 µM | > 30 µM | > 30 µM | > 30 µM |  | 
Cc1cccc(N2CC(CO)OC2=O)c1 (configuration not stated) [TOLOXATONE] | > 30 µM | > 30 µM | > 30 µM | > 30 µM | > 30 µM | > 30 µM | > 30 µM |  | 
CC(C)[C@H](N)C(=O)OCC(CO)OCn1cnc2c(=O)nc(N)[nH]c21 (some centres not stated) [VALGANCICLOVIR] | > 30 µM | > 30 µM | > 30 µM | > 30 µM | > 30 µM | > 30 µM | > 30 µM | > 30 µM | 
COc1cc(N)c(Cl)cc1C(=O)NC1CCN(Cc2ccccc2)CC1 [CLEBOPRIDE] | > 30 µM | > 30 µM | 2.4 µM | > 30 µM | > 30 µM | 8.6 µM | 13 µM |  | 
C#C[C@]1(OC(C)=O)CC[C@H]2[C@@H]3CCC4=C/C(=N/O)CC[C@@H]4[C@H]3CC[C@@]21CC [NORGESTIMATE] | > 30 µM | > 30 µM | > 30 µM | > 30 µM | 11 µM | > 30 µM | > 30 µM | > 30 µM | 
COCC1=C(C(=O)O)N2C(=O)[C@@H](NC(=O)/C(=N\OC)c3csc(N)n3)[C@H]2SC1 [CEFPODOXIME] | > 30 µM | > 30 µM | > 30 µM | > 30 µM | > 30 µM | > 30 µM | 0.12 µM | > 30 µM | 
Clc1ccc(C(Cn2ccnc2)OCc2ccsc2Cl)c(Cl)c1 (configuration not stated) [TIOCONAZOLE] | > 30 µM | > 30 µM | 19 µM | > 30 µM | 6.43 µM | > 30 µM | > 30 µM | > 30 µM | 
OC1(c2ccc(Cl)cc2)c2ccccc2C2=NCCN21 (configuration not stated) [MAZINDOL] | > 30 µM | > 30 µM |  | > 30 µM | 9.6 µM | > 30 µM | > 30 µM | > 30 µM | > 10 µM
Clc1ccc2c(N3CCN(CCCN4CCN(c5ccnc6cc(Cl)ccc56)CC4)CC3)ccnc2c1 [PIPERAQUINE] | > 30 µM | > 30 µM | > 30 µM | > 30 µM | > 30 µM | > 30 µM | > 30 µM |  | 
CC(=O)N[C@@H](CS)C(=O)O [ACETYLCYSTEINE] | > 30 µM | > 30 µM | > 30 µM | > 30 µM | > 30 µM | > 30 µM | > 30 µM | > 30 µM | 
C[C@]12CCC(=O)C(O)=C1CC[C@@H]1[C@@H]2CC[C@]2(C)C(=O)CC[C@@H]12 [FORMESTANE] | > 30 µM | > 30 µM | > 30 µM | > 30 µM | > 30 µM | > 30 µM | > 30 µM | > 30 µM | 
Cc1cc2cc3c(C)cc(=O)oc3c(C)c2o1 [TRIOXSALEN] | > 10 µM | > 30 µM |  | > 10 µM | > 30 µM | > 30 µM | > 30 µM | > 10 µM | > 30 µM
CC(C)COCC(CN(Cc1ccccc1)c1ccccc1)N1CCCC1 (configuration not stated) [BEPRIDIL] | > 30 µM | > 30 µM | 22 µM | 12.5 µM |  | > 30 µM | > 30 µM | > 10 µM | 
CCCCC1C(=O)N(c2ccccc2)N(c2ccccc2)C1=O [PHENYLBUTAZONE] | > 10 µM | > 30 µM |  | > 30 µM | > 30 µM | > 30 µM | > 30 µM | > 10 µM | > 30 µM
C/N=C(\NC)NCc1ccccc1 [BETHANIDINE] | > 30 µM | > 30 µM | > 30 µM | > 30 µM | > 30 µM | > 30 µM | > 10 µM | > 30 µM | 
[H]/N=C(/N)N/C(=N/[H])NCCc1ccccc1 [PHENFORMIN] | > 10 µM | > 30 µM |  | > 30 µM | > 30 µM | > 30 µM | > 30 µM | > 30 µM | > 30 µM
CCC(C)C1(CC)C(=O)NC(=O)NC1=O (configuration not stated) [BUTABARBITAL] | > 30 µM | > 30 µM | > 30 µM | > 30 µM | > 30 µM |  |  |  | 
